From PubChem BioAssay (NCI)
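A five-concentration, 48-hour dose response in 96-well plates underlies each endpoint, interpolated linearly between surrounding concentrations. The concentration for 50% growth inhibition is given as GI50. Definition used: TGI = concentration required for complete inhibition of growth.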

How the values were obtained:
Experiment in all cases: DTP human tumour cell line panel, 48 h
[1] = system: M14 melanoma
[2] = system: COLO 205 colon
[3] = system: UACC-257 melanoma
[4] = system: SK-MEL-28 melanoma
[5] = system: A549 NSCLC
[6] = system: ACHN renal
[7] = system: CCRF-CEM leukemia
[8] = system: MDA-MB-435
[9] = system: NCI-H226 lung
[10] = system: HCT-116 colon
[11] = system: HCC-2998 colon
[12] = system: NCI-H460 lung
[13] = system: HL-60(TB) leukemia
[14] = system: OVCAR-8 ovarian
[15] = system: OVCAR-3 ovarian
[16] = system: SK-MEL-2 melanoma
[17] = system: SNB-19 CNS
[18] = system: HOP-62 NSCLC
[19] = system: DU-145 prostate
[20] = system: NCI-H522 lung
[21] = system: LOX IMVI melanoma
[22] = system: MDA-MB-231 breast
[23] = system: SF-295 CNS
[24] = system: SF-268 CNS
[25] = system: A498 renal
[26] = system: EKVX NSCLC
[27] = system: UACC-62 melanoma
[28] = system: T-47D breast
[29] = system: SF-539 CNS
[30] = system: OVCAR-5 ovarian
[31] = system: BT-549 breast
[32] = system: MCF7 breast
[33] = system: RPMI-8226 leukemia
[34] = system: PC-3 prostate
[35] = system: KM12 colon
[36] = system: CAKI-1 renal
[37] = system: OVCAR-4 ovarian
[38] = system: SK-MEL-5 melanoma
[39] = system: IGROV1 ovarian
[40] = system: MALME-3M melanoma
[41] = system: SR leukemia
[42] = system: UO-31 renal
[43] = system: 786-0 renal
[44] = system: SW-620 colon
[45] = system: HOP-92 NSCLC
[46] = system: HT29 colon
[47] = system: HS 578T breast
[48] = system: MOLT-4 leukemia
[49] = system: SNB-75 CNS
[50] = system: TK-10 renal
[51] = system: U251 CNS
[52] = system: SN12C renal
[53] = system: NCI/ADR-RES ovarian
[54] = system: SK-OV-3 ovarian
[55] = system: K-562 leukemia
[56] = system: HCT-15 colon
[57] = system: NCI-H23 lung
[58] = system: RXF 393 renal

## COc1ccc(/C(=N\NC(N)=S)c2ccc(Cl)cc2)cc1OC
[1]
  GI50: 2.93 µM
  TGI: 15.2 µM
[2]
  GI50: 3.37 µM
  TGI: 10.8 µM
[3]
  GI50: 8.13 µM
  TGI: 26.2 µM
[4]
  GI50: 6.95 µM
  TGI: 21.7 µM
[5]
  GI50: 5.94 µM
  TGI: 32.3 µM
[6]
  GI50: 5.89 µM
  TGI: 29.2 µM
[7]
  GI50: 2.63 µM
  TGI: 16.6 µM
[8]
  GI50: 0.638 µM
  TGI: 2.84 µM
[9]
  GI50: 2.72 µM
  TGI: 17.6 µM
[10]
  GI50: 3.59 µM
  TGI: 15.6 µM
[11]
  GI50: 4.36 µM
  TGI: 16.5 µM
[12]
  GI50: 3.58 µM
  TGI: 13 µM
[13]
  GI50: 1.77 µM
  TGI: 8.05 µM
[14]
  GI50: 4.41 µM
  TGI: 20.5 µM
[15]
  GI50: 3.47 µM
  TGI: 14.9 µM
[16]
  GI50: 1.67 µM
  TGI: 4.67 µM
[17]
  GI50: 5.22 µM
  TGI: 21.5 µM
[18]
  GI50: 4.38 µM
  TGI: 20.8 µM
[19]
  GI50: 5.95 µM
  TGI: 22.5 µM
[20]
  GI50: 1.37 µM
  TGI: 4.62 µM
[21]
  GI50: 4.41 µM
  TGI: 18.2 µM
[22]
  GI50: 4.48 µM
  TGI: 18.2 µM
[23]
  GI50: 3.56 µM
  TGI: 14.2 µM
[24]
  GI50: 8.87 µM
  TGI: 30.3 µM
[25]
  GI50: 5.93 µM
  TGI: 13.4 µM
[26]
  GI50: 4.95 µM
  TGI: 28.3 µM
[27]
  GI50: 3.7 µM
  TGI: 19.6 µM
[28]
  GI50: 3.16 µM
  TGI: 25 µM
[29]
  GI50: 2.63 µM
  TGI: 9.11 µM
[30]
  GI50: 5.44 µM
  TGI: 21.3 µM
[31]
  GI50: 2.4 µM
  TGI: 6.33 µM
[32]
  GI50: 3.12 µM
  TGI: 15.5 µM
[33]
  GI50: 3.4 µM
  TGI: 16.4 µM
[34]
  GI50: 3.76 µM
  TGI: 20.1 µM
[35]
  GI50: 3.56 µM
  TGI: 19.4 µM
[36]
  GI50: 3.28 µM
  TGI: 17.1 µM
[37]
  GI50: 7.01 µM
  TGI: 40.7 µM
[38]
  GI50: 4.14 µM
  TGI: 14 µM
[39]
  GI50: 4.11 µM
  TGI: 20.4 µM
[40]
  GI50: 3.54 µM
  TGI: 19.2 µM
[41]
  GI50: 2.43 µM
  TGI: > 39.7 µM
[42]
  GI50: 3.34 µM
  TGI: 16.6 µM
[43]
  GI50: 7.54 µM
  TGI: 23.1 µM
[44]
  GI50: 3.65 µM
  TGI: 17.5 µM
[45]
  GI50: 4.67 µM
  TGI: 17.4 µM
[46]
  GI50: 2.69 µM
  TGI: 9.48 µM
[47]
  GI50: 2.77 µM
  TGI: 13.8 µM
[48]
  GI50: 4.91 µM
  TGI: 29.2 µM
[49]
  GI50: 1.69 µM
  TGI: 6.73 µM
[50]
  GI50: 11.1 µM
  TGI: 31.6 µM
[51]
  GI50: 3.71 µM
  TGI: 15.4 µM
[52]
  GI50: 4.63 µM
  TGI: 18.5 µM
[53]
  GI50: 2.34 µM
  TGI: 9.89 µM
[54]
  GI50: 3.38 µM
  TGI: 16.1 µM
[55]
  GI50: 1.04 µM
  TGI: > 41.1 µM
[56]
  GI50: 2.06 µM
  TGI: 15.6 µM
[57]
  GI50: 4.7 µM
  TGI: 18.2 µM
[58]
  GI50: 1.94 µM
  TGI: 7.26 µM
